From a melting point compilation (Tetko et al.)

Row | SMILES | melting point
1 | N#C/C(=N\Nc1ccc(Br)cc1)c1nc2ccccc2s1 | 280 °C
2 | COC(=O)C1Nc2ccccc2C1(C)C (configuration not stated) | 168 to 170 °C
3 | CSc1ccc2c(c1)N(CCC1CCCCN1C)c1ccccc1S2 (configuration not stated) | 73 °C
4 | C#Cc1cccnc1 | 40 °C
5 | O=C(CBr)c1nccs1 | 54 to 55 °C
6 | O=C(O)c1c(F)ccc(F)c1O | 152 °C
7 | CC(C)NC(=O)N1CC(=O)N(c2cc(Cl)cc(Cl)c2)C1=O | 136 °C
8 | O=C(O)C1COc2ccccc2O1 (configuration not stated) | 125 to 128 °C
9 | C=C1C(=O)C23C4CC5C(C)(C)CCC(OC(C)=O)C5(C)C2C(OC(C)=O)CC1(O)C3OC(C)(C)O4 (configuration not stated) | 246 °C
10 | Nc1ccc(C2SCCS2)cc1 | 57 to 59 °C
11 | COc1ccc(-c2cc(-c3ccc(OC)cc3)cc(-c3ccc(OC)cc3)c2)cc1 | 143 to 146 °C
12 | CC(C)C1=C(O)C(=O)C2=C(C1=O)C(O)C(O)C1C(C)(C)CCCC21C (configuration not stated) | 203 to 205 °C
13 | CCCc1c(C)nc(NC(=O)NS(=O)(=O)c2cccs2)nc1Cl | 171 to 173 °C
14 | Cc1nc(-c2ccc(CO)cc2)no1 | 131 to 132 °C
15 | Cc1nc(N)nc(O)c1Br | 244 to 246 °C
16 | Cc1ncc(C(=O)O)c(-c2ccccc2)n1 | 210 to 211 °C
17 | CCCCC(CC)CN (configuration not stated) | -76 °C
18 | CCOC(=O)C1=C(C)N=c2cc3c(cc21)=C(C(=O)OCC)C(C)=N3 | 342 °C
19 | CNP(=O)(OC)Oc1ccc(C(C)(C)C)cc1Cl (configuration not stated) | 60 °C
20 | OCC(I)CC(F)(F)C(F)(F)C(F)(F)C(F)(F)C(F)(F)C(F)(F)F (configuration not stated) | 45 to 46 °C
21 | CSc1nc(N)c(C(=O)c2ccccc2)s1 | 126 to 127 °C
22 | NC(=S)c1ccccn1 | 136 °C
23 | NNC(=O)c1ccc(Cl)c(Cl)c1 | 154 to 160 °C
24 | Oc1ccc(Oc2ccc(O)cc2)cc1 | 163 to 168 °C
25 | NS(=O)(=O)c1cccc(Br)c1 | 155 to 158 °C
26 | Clc1ccc(-c2c(Cl)cc(Cl)cc2Cl)cc1 | 65 °C

Row | SMILES | melting point
27 | O=Cc1ccccc1OCc1cccc(Cl)c1 | 38 to 41 °C
28 | Cc1cc(Cl)ccc1Cl | 5 °C
29 | OCc1cccc(-c2cncnc2)c1 | 65 to 66 °C
30 | Nc1ncnc2c1cnn2CCO | 218 °C
31 | CC(=O)N1C(C(=O)O)Cc2c([nH]c3ccccc23)C1(C)C (configuration not stated) | 160 °C
32 | CCCCCCCCCCCCC(C)C | -8 °C
33 | COc1cccc(OCC(=O)O)c1 | 118 °C
34 | CCCCC(=O)c1ccc(O)cc1 | 62 to 65 °C
35 | CC(C)(CO)C(O)C(=O)NCCCO (racemic) | 68 °C
36 | CC(C)(C)[C@H]1CC[C@H](C(=O)O)CC1 | 170 to 175 °C
37 | CCCC(/C=C1\C(=O)C2(C)CCC1C2(C)C)(/C=C1\C(=O)C2(C)CCC1C2(C)C)C(=O)OCC (configuration not stated) | 161 °C
38 | C/C=C(\C)c1ccccc1 | -23.5 °C
39 | COc1cc([C@@H](O)[C@H](CO)Oc2c(OC)cccc2OC)cc(OC)c1O | 217 °C
40 | C=C1CC2C3CCC4=CC(=O)C=CC4(C)C3C(O)CC2(C)C1(O)C(=O)CO (configuration not stated) | 234 °C
41 | Nc1ccc(Br)c([N+](=O)[O-])c1 | 128 to 132 °C
42 | Nc1ccc(C=Cc2nc3ccccc3[nH]2)cc1 | 225 °C
43 | C#CC1(O)CCC2C3CC=C4C=C(C(C)(C)C(=O)O)CCC4(C)C3CCC21C (configuration not stated) | 257 to 260 °C
44 | O=C(Nc1cccnc1Cl)c1ccccc1 | 91 to 92 °C
45 | COc1c(F)ccc(C(N)=O)c1F | 112 °C
46 | O=[N+]([O-])c1ccc(CS(=O)(=O)Cl)cc1 | 91 to 92 °C
47 | N[C@H](CO)[C@H](O)c1ccc([N+](=O)[O-])cc1 | 160 to 166 °C
48 | CC(C)(C)[N+]([O-])=Cc1ccccc1 | 71 to 75 °C
49 | O=C1C=CC(=O)c2ccccc21 | 128 °C
50 | O=[N+]([O-])c1cccc(S(=O)(=O)NCCNS(=O)(=O)c2cccc([N+](=O)[O-])c2)c1 | 190 °C
51 | COc1cc(C(=O)N2CCOCC2)cc(OC)c1OC | 121 °C
52 | CCCCCCCCC(NC(=O)OCC1c2ccccc2-c2ccccc21)C(=O)O (configuration not stated) | 143 °C

Row | SMILES | melting point
53 | CC(C)(C)OC(=O)N[C@@H](Cc1ccccc1F)C(=O)O | 92 to 96 °C
54 | Nc1nnc(-c2ccccc2)c(Nc2ccc(Cl)cc2)n1 | 297 °C
55 | CC(C)C(Nc1ccc(C(F)(F)F)cc1Cl)C(=O)OC(C#N)c1cccc(Oc2ccccc2)c1 (configuration not stated) | 25 °C
56 | COc1cc([N+](=O)[O-])cc(C=O)c1O | 140 °C
57 | CNC(=O)Oc1ccccc1OC(CCl)OC (configuration not stated) | 80 °C
58 | CCNC=C(C(=O)OCC)C(=O)c1cnc(Cl)c(F)c1 | 122 to 124 °C
59 | O=C(NC(Cc1ccccn1)C(=O)O)OCC1c2ccccc2-c2ccccc21 (configuration not stated) | 154 °C
60 | OCC(c1ccccc1)c1ccccc1 | 64.5 °C
61 | O=C1OC(c2ccccc2)=N/C1=C/c1ccc(-c2ccccc2[N+](=O)[O-])o1 | 210 °C
62 | NC(=O)C1C2C=CC(C2)C1N (configuration not stated) | 235 to 253 °C
63 | O=C(O)c1ccccc1CS(=O)c1ccccc1 (configuration not stated) | 185 to 187 °C
64 | CCNc1nc(Cl)nc(NC(C)(C)C#N)n1 | 168 °C
65 | CC1=CS(=O)(=O)c2ccc(Cl)cc21 | 168 to 172 °C
66 | Nc1cc(C(F)(F)F)ccc1N1CCOCC1 | 135 to 137 °C
67 | O=Cc1ccc(N2CCCC2)cn1 | 101 to 102 °C
68 | Cc1cc(C)c2c(=O)n(C)c(S)nc2n1 | 234 to 236 °C
69 | COc1c(C)c2c(c(O)c1CC=C(C)CCC(=O)O)C(=O)OC2 | 141 °C
70 | CN1CCN(Cc2ccc(C#N)cc2)CC1 | 69 to 71 °C
71 | Brc1ccc2cc[nH]c2c1 | 92 °C
72 | Clc1cc(C(Cl)Cl)c(Cl)cc1C(Cl)Cl | 72 °C
73 | O=C(OCC1OC(O)(COC(=O)c2cccnc2)C(OC(=O)c2cccnc2)C1OC(=O)c1cccnc1)c1cccnc1 (configuration not stated) | 141 °C
74 | Nc1c(C(=O)O)cccc1C(F)(F)F | 157 to 160 °C
75 | CC(C)OC(=O)Cc1csc(-c2ccc(Cl)cc2)n1 | 82 to 84 °C
76 | CCCCCCCCCCCCN1CC(C(=O)O)CC1=O (configuration not stated) | 39 °C
77 | CCCCCCCCCCCCCCCCCC(CC)c1ccccc1 (configuration not stated) | 29.3 °C
78 | c1cc2c3c(cccc3c1)-c1nc3ccccc3nc1-2 | 239 to 242 °C

Row | SMILES | melting point
79 | COc1ccccc1N1CCN(CCCNc2cc(=O)n(C)c(=O)n2C)CC1 | 156 °C
80 | CCCCCCCCOc1ccc(NC(=O)c2ccc(OC)cc2)cc1 | 152 to 154 °C
81 | COC(=O)[C@H](CCC(=O)O)NC(=O)OCc1ccccc1 | 68 to 70 °C
82 | O=C1C=CCN1[C@@H](CO)c1ccccc1 | 103 °C
83 | CCOC(=O)C(C(=O)OCC)=C(C(=O)OCC)C(=O)OCC | 58 °C
84 | CC=C1CCC2C3CC=C4CC(OC(C)=O)CCC4(C)C3CCC12C (configuration not stated) | 137 °C
85 | CC(C)(C)OC(=O)NC(Cc1cccnc1)C(=O)O (configuration not stated) | 137 °C
86 | CSc1nc(N)n[nH]1 | 130 to 133 °C
87 | O=C(c1ccc(Cl)cc1)C(Br)c1ccccc1 (configuration not stated) | 65 to 66 °C
88 | CC(C=CC1=C(C)CCCC1(C)C)=CC=CC(C)=CC(=O)O | 185 °C
89 | CCCCCCCCCCCCCOCC1CO1 (configuration not stated) | 1.6 °C
90 | O=C(O)COc1ccc(Cl)cc1CO | 141 °C
91 | CCCCCCOC(=O)CCC | -78 °C
92 | Cc1[nH]nc(-c2ccccc2)c1C | 104 °C
93 | NC(=S)c1cccc(Cl)c1 | 110 to 113 °C
94 | CC(C)(C)c1ccc(-c2nn[nH]n2)cc1 | 193 to 195 °C
95 | C=C1N(C)c2ccccc2C1(C)C | -8 °C
96 | O=C(O)COc1ccc(CO)cc1 | 112 °C
97 | C=CCNC(=O)NCC=C | 91.5 °C
98 | Oc1cccc(-c2ccccc2)c1 | 78 °C
99 | Nc1nc(O)nc2[nH]ncc12 | 320 °C
100 | CC(C)C1COC2(C)C=CC(=O)N12 (configuration not stated) | 46 to 50 °C
101 | O=C(O)c1cc(O)ccc1O | 204 to 207 °C
102 | CCCCC(=O)OC1(C(=O)CO)C(C)CC2C3CCC4=CC(=O)C=CC4(C)C3(F)C(O)CC21C (configuration not stated) | 184 °C
103 | O=S(=O)(Cl)c1ccccc1Cl | 27 °C
104 | N#CCCP(CCC#N)CCC#N | 98 °C

Row | SMILES | melting point
105 | CC(=O)Nc1cc([N+](=O)[O-])ccc1Nc1ccc(C)cc1 | 176 °C
106 | Cc1ccccc1NC(=O)c1cnc(C(C)(C)C)c(Cl)n1 | 115 °C
107 | Cc1noc(C)c1N | 52 to 54 °C
108 | O=C(OCC(=O)N1CCC[C@H]1C(=O)O)c1ccccc1 | 116 °C
109 | CCOC(=O)c1ccc(NC)c(N)c1 | 87 to 88 °C
110 | CC1=C(C(=O)O)CCC1(C)C | 135 °C
111 | CC1CC(N(C)C)C(O)C(OC2C(C)CC(C)C(=O)C=CC(C)C(C(C)O)OC(=O)C2C)O1 (configuration not stated) | 157 °C
112 | CCOC(=O)c1cccc(Oc2cncc(C)n2)c1 | 50.5 to 51.5 °C
113 | Cn1nc(C(F)(F)F)c(C(=O)O)c1Cl | 201 to 202 °C
114 | COc1ccc(-c2csc(/C(C#N)=N\Nc3ccncc3)n2)cc1 | 255 °C
115 | N#Cc1ccncc1Br | 93 °C
116 | O=[N+]([O-])c1ccc(O)cc1O | 122 °C
117 | COc1cc(C(=O)Nc2ccc3nn(C4CCCCC4)nc3c2)cc(OC)c1OC | 130 °C
118 | CC(C)(O)C(=O)c1ccc(OCCO)cc1 | 89 °C
119 | NCCN(CCN)N(O)N=O | 98 to 106 °C
120 | O=C=Nc1ccc(Cl)c(C(F)(F)F)c1 | 35 to 36 °C
121 | CN1c2ccccc2Sc2ccccc21 | 102 °C
122 | Cc1n[nH]c2c1c(=O)n(-c1ccccc1)c1ccccc21 | 162 to 163 °C
123 | c1ccc2c(c1)ccc1c2ccc2c3ccccc3ccc21 | 368 °C
124 | COc1ccc(Nc2[nH]c(=S)nnc2-c2ccccc2)cc1 | 233 °C
125 | Brc1ccc(OC2CCOCC2)nc1 | 96 to 98 °C
126 | O=C(O)C(=S)CC1CCCC(CC(=S)C(=O)O)C1 (configuration not stated) | 85 °C
127 | O=c1c(Cl)c(Cl)cnn1Cc1c(F)cccc1Cl | 137 to 138 °C
